Broadly, the IC50 is the concentration that gives 50% inhibition.

Our source for the IC50 values is US20040044000A1, “Isoquinoline derivatives as matrix metalloproteinase inhibitors” (priority 2002, published 2004).

For this test, the target named is T1, MMP-13 catalytic domain (MMP-13CD) (Homo sapiens, UniProt P45452).
T1 construct: use the catalytic domain of the MMP-13 enzyme, namely matrix metalloproteinase-13 catalytic domain (“MMP-13CD”), rather than the corresponding full-length enzyme
Put plainly: Inhibition of MMP-13 catalytic domain (thiopeptolide substrate hydrolysis). Format: biochemical. The source says: The assays measure the amount by which a test compound reduces the hydrolysis of a thiopeptolide substrate catalyzed by a matrix metalloproteinase enzyme. Such assays are described in detail by Ye et al., in Biochemistry, 1992;31(45):11231-11235, which is incorporated herein by reference. One such assay is described below in Biological Method 1.
Some of the particular methods described below use the catalytic domain of the MMP-13 enzyme, namely matrix metalloproteinase-13 catalytic domain (“MMP-13CD”), rather than the corresponding full-length enzyme, MMP-13. It has been shown previously by Ye Qi-Zhuang, Hupe D., and Johnson L. (Current Medicinal Chemistry, 1996;3:407-418) that inhibitor activity against a catalytic domain of an MMP is predictive of the inhibitor activity against the respective full-length MMP enzyme.
Thiopeptolide substrates show virtually no decomposition or hydrolysis at or below neutral pH in the absence of a matrix metalloproteinase enzyme. A typical thiopeptolide substrate commonly utilized for assays is Ac-Pro-Leu-Gly-thioester-Leu-Leu-Gly-OEt. A 100 μL assay mixture will contain 50 mM of N-2-hydroxyethylpiperazine-N′-2-ethanesulfonic acid buffer (“HEPES,” pH 7.0), 10 mM CaCl2, 100 μM thiopeptolide substrate, and 1 mM 5,5′-dithio-bis-(2-nitro-benzoic acid) (DTNB). The thiopeptolide substrate concentration may be varied, for example from 10 to 800 μM to obtain Km and Kcat values. The change in absorbance at 405 nm is monitored on a Thermo Max microplate reader (molecular Devices, Menlo Park, Calif.) at room temperature (22° C.). The calculation of the amount of hydrolysis of the thiopeptolide substrate is based on E412=13600 M^−1 cm^−1 for the DTNB-derived product 3-carboxy-4-nitrothiophenoxide. Assays are carried out with and without matrix metalloproteinase inhibitor compounds, and the amount of hydrolysis is compared for a determination of inhibitory activity of the test compounds.
Test compounds were evaluated at various concentrations in order to determine their respective IC50 values, the micromolar concentration of compound required to cause a 50% inhibition of catalytic activity of the respective enzyme.

The mark [1] stands for this setting: Biological Table 2, compounds of Example 66, read-out: MMP-13CD IC50.
[2] abbreviates: Biological Table 1, read-out: MMP-13CD IC50.
The mark [3] stands for this setting: read-out: IC50 with MMP-13 catalytic domain.

SMILES strings stand for the structures. Where two headings read alike, the source gives them in different places.

In the case of `N#CCCn1ccc2ccc(C#CCc3ccccc3)cc2c1=O` [Example 66d, 3-[1-Oxo-7-(3-phenyl-prop-1-ynyl)-1H-isoquinolin-2-yl]-propionitrile], under setting [1], the half-inhibitory concentration (IC50) stood at 4.8 µM.

As for `O=c1c2cc(C#CCc3ccccc3)ccc2ccn1CC(CO)(CO)CO` [Example 66b, 2-(3-Hydroxy-2,2-bis-hydroxymethyl-propyl)-7-(3-phenyl-prop-1-ynyl)-2H-isoquinolin-1-one], under setting [1], the IC50 is over 100 µM. The same measure, in the same setting: the same measure for `CCOC(=O)CCCn1ccc2ccc(C#CCc3ccccc3)cc2c1=O` [Example 66aa, 4-[1-Oxo-7-(3-phenyl-prop-1-ynyl)-1H-isoquinolin-2-yl]-butyric acid ethyl ester]: 12 µM. On the same count and under the same terms, then `O=c1c2cc(C#CCc3ccccc3)ccc2ccn1CCCC(F)(F)F` [Example 66ai, 7-(3-Phenyl-prop-1-ynyl)-2-(4,4,4-trifluoro-butyl)-2H-isoquinolin-1-one], with 14 µM; and `COC(Cn1ccc2ccc(C#CCc3ccccc3)cc2c1=O)OC` [Example 66h, 2-(2,2-Dimethoxy-ethyl)-7-(3-phenyl-prop-1-ynyl)-2H-isoquinolin-1-one], with 34 µM. For `O=C(NCc1ccncc1)c1ccc2ccn(CCOc3ccccc3)c(=O)c2c1` [Example 41, 1-oxo-2-(2-phenoxyethyl)-1,2-dihydroisoquinoline-7-carboxylic Acid (pyridin-4-ylmethyl)amide], the IC50 under setting [2] came out at 26 µM. Still for that read-out and setting: the same measure for `O=C(NCc1cncnc1)c1ccc2ccn(CCOc3ccccc3)c(=O)c2c1` [Example 46, 1-oxo-2-(2-phenoxyethyl)-1,2-dihydroisoquinoline-7-carboxylic Acid (pyrimidin-5-ylmethyl)-amide]: over 100 µM. On to `O=C(O)c1ccc(Cn2ccc3ccc(C#CCc4ccccc4)cc3c2=O)cc1` [Example 1, 4-[1-Oxo-7-(3-phenyl-prop-1-ynyl)-1H-isoquinolin-2-ylmethyl]benzoic Acid], for which, under setting [3], the IC50 was 0.0018 µM. On the same count and under the same terms, then `O=c1c2cc(C#CCc3ccccc3)ccc2ccn1Cc1cccc(Cl)c1` [Example 10, 2-(3-Chlorobenzyl)-7-(3-phenylprop-1-ynyl)-2H-isoquinolin-1-one], with 0.052 µM.

Regarding `CSc1ccc(CNC(=O)c2ccc3ccn(Cc4ccc(S(C)(=O)=O)cc4)c(=O)c3c2)cc1` [Example 56, 2-(4-methane-sulfonylbenzyl)-1-oxo-1,2-dihydro-isoquinoline-7-carboxylic Acid 4-methyl-sulfanylbenzylamide], the IC50 under setting [2] was 2.2 µM.

On to `COC(=O)CCCCn1ccc2ccc(C#CCc3ccccc3)cc2c1=O` [Example 66p, 5-[1-Oxo-7-(3-phenyl-prop-1-ynyl)-1H-isoquinolin-2-yl]-pentanoic acid methyl ester], for which the IC50 under setting [1] turned out to be 9.4 µM. Consider `O=C(NCc1cncnc1)c1ccc2ccn(Cc3ccc(F)c(F)c3)c(=O)c2c1` [Example 26, 2-(3,4-difluorobenzyl)-1-oxo-1,2-dihydroisoquinoline-7-carboxylic Acid (pyrimidin-5-ylmethyl)-amide], for which the IC50 under setting [2] stood at 12 µM. With `O=c1c2cc(C#CCc3ccccc3)ccc2ccn1CC[S+]([O-])c1ccccc1` (stereo not drawn) [Example 66z, 2-(2-Benzenesulfinyl-ethyl)-7-(3-phenyl-prop-1-ynyl)-2H-isoquinolin-1-one], under setting [1], the IC50 is over 100 µM. On the same count and under the same terms, then `O=c1c2cc(C#CCc3ccccc3)ccc2ccn1CC(O)CO` (stereo not drawn) [Example 66e, 2-(2,3-Dihydroxy-propyl)-7-(3-phenyl-prop-1-ynyl)-2H-isoquinolin-1-one], with 50 µM. Take `COCCn1ccc2ccc(C#CCc3ccccc3)cc2c1=O` [Example 66w, 2-(2-Methoxy-ethyl)-7-(3-phenyl-prop-1-ynyl)-2H-isoquinolin-1-one]: the IC50 under setting [1] is over 30 µM. Consider `CS(=O)(=O)c1ccc(Cn2ccc3ccc(C(=O)NCc4cccnc4)cc3c2=O)cc1` [Example 50, 2-(4-methane-sulfonylbenzyl)-1-oxo-1,2-dihydro-isoquinoline-7-carboxylic Acid (pyridin-3-ylmethyl)amide], for which the IC50 under setting [2] was found to be 7.4 µM. Turning to `COC(=O)CCn1ccc2ccc(C#CCc3ccccc3)cc2c1=O` [Example 66k, 3-[1-Oxo-7-(3-phenyl-prop-1-ynyl)-1H-isoquinolin-2-yl]-propionic acid methyl ester], the IC50 under setting [1] was over 100 µM.

Regarding `O=c1c2cc(C#CCc3ccccc3)ccc2ccn1CCCCCCO` [Example 66ac, 2-(6-Hydroxy-hexyl)-7-(3-phenyl-prop-1-ynyl)-2H-isoquinolin-1-one], the IC50 under setting [1] was 7.1 µM.

Consider `Cc1ccc(CNC(=O)c2ccc3ccn(Cc4ccc(C#N)cc4)c(=O)c3c2)cc1` [Example 39, 2-(4-cyanobenzyl)-1-oxo-1,2-dihydro-isoquinoline-7-carboxylic Acid 4-methylbenzylamide], for which the IC50 under setting [2] is over 10 µM. Turning to `CCOC(=O)CCn1ccc2ccc(C#CCc3ccccc3)cc2c1=O` [Example 66t, 3-[1-Oxo-7-(3-phenyl-prop-1-ynyl)-1H-isoquinolin-2-yl]-propionic acid ethyl ester], the IC50 under setting [1] is over 100 µM. In the case of `N#Cc1ccc(Cn2ccc3ccc(C(=O)NCc4cccnc4)cc3c2=O)cc1` [Example 34, 2-(4-cyanobenzyl)-1-oxo-1,2-dihydro-isoquinoline-7-carboxylic acid (pyridin-3-ylmethyl)amide], the IC50 under setting [2] came out at 3.4 µM.

On to `O=c1c2cc(C#CCc3ccccc3)ccc2ccn1CCC1OCCO1` [Example 66m, 2-(2-1,3-Dioxolan-2-yl-ethyl)-7-(3-phenyl-prop-1-ynyl)-2H-isoquinolin-1-one], for which the half-inhibitory concentration (IC50) under setting [1] was 24 µM. Take `O=c1c2cc(C#CCc3ccccc3)ccc2ccn1CC(F)(F)F` [Example 66ah, 7-(3-Phenyl-prop-1-ynyl)-2-(2,2,2-trifluoro-ethyl)-2H-isoquinolin-1-one]: the IC50 under setting [1] stood at 24 µM. On the same count and under the same terms, the same measure for `CCOC(Cn1ccc2ccc(C#CCc3ccccc3)cc2c1=O)OCC` [Example 66r, 2-(2,2-Diethoxy-ethyl)-7-(3-phenyl-prop-1-ynyl)-2H-isoquinolin-1-one]: 33 µM.

For the molecule `COc1ccc(CNC(=O)c2ccc3ccn(CCOc4ccccc4)c(=O)c3c2)cc1` [Example 44, 1-oxo-2-(2-phenoxyethyl)-1,2-dihydroisoquinoline-7-carboxylic Acid 4-methoxybenzylamide], the IC50 under setting [2] turned out to be 7.5 µM. For the molecule `NS(=O)(=O)c1ccc(Cn2ccc3ccc(C#CCc4ccccc4)cc3c2=O)cc1` [Example 5, 4-[1-Oxo-7-(3-phenyl-prop-1-ynyl)-1H-isoquinolin-2-ylmethyl]benzenesulfonamide], the IC50 under setting [3] is 0.036 µM. Take `O=c1c2cc(C#CCc3ccccc3)ccc2ccn1CCC1OCCCO1` [Example 66f, 2-(2-1,3-Dioxinan-2-yl-ethyl)-7-(3-phenyl-prop-1-ynyl)-2H-isoquinolin-1-one]: under setting [1], the IC50 is over 30 µM. For the molecule `N#CCCCn1ccc2ccc(C#CCc3ccccc3)cc2c1=O` [Example 66c, 4-[1-Oxo-7-(3-phenyl-prop-1-ynyl)-1H-isoquinolin-2-yl]-butyronitrile], the IC50 under setting [1] was 22.5 µM. Same read-out and setting: then `N#CCCCCCCn1ccc2ccc(C#CCc3ccccc3)cc2c1=O` [Example 66aj, 7-[1-Oxo-7-(3-phenyl-prop-1-ynyl)-1H-isoquinolin-2-yl]-heptanenitrile], with 3.9 µM. `O=C(O)c1ccc(Cn2ccc3ccc(C#CCn4ccnc4)cc3c2=O)cc1` [Example 13, 4-[7-(3-Imidazol-1-ylprop-1-ynyl)-1-oxo-1H-isoquinolin-2-ylmethyl]benzoic Acid]: the IC50 under setting [3] turned out to be 0.0089 µM.
